Reference: patent publication US8097585B2, “Methods of treating inflammation by administration of heme oxygenase-1 and products of heme degradation” (priority 2002, dated 2012)

Legend:
DSS-colitis = DSS-colitis (acute colitis) mouse model: weight loss, DAI, symptoms, crypt score; type: in vivo, C57BL/6 mice
Description: Animals. Pathogen-free male C57BL/6 mice, 4-6 weeks of age (Taconic; C57BL/6×129 svj strain) were used in this example. Mice were kept for one week at 4 mice/cage and fed normal laboratory chow and drinking water ad libitum prior to the experiments. All mice weighed between 22.5 g and 27.7 g at the beginning of the trial. The animal experimentation protocol was reviewed and approved by the Animal Care and Use Committees of the Beth Israel Deaconess Medical Center.
Induction of Colitis. Colitis was induced by feeding mice 5% (wt/v) dextran sodium sulfate (DSS) (MW 40,000; ICN Biomedicals Inc., OH), dissolved in distilled water, for a period of 7 days. The resulting condition was termed “DSS-colitis.” Control animals were fed distilled water ad libitum. The mortality rate in the control group and the CO-treated group was 10% (2/20) and 14% (2/14), respectively. These animals were excluded from the statistical analysis. In the other groups, no mortality occurred during 7 days of 5% DSS treatment.
Experimental Reagents and Treatment Protocol. Cobalt protoporphyrin (CoPPIX), zinc protoporphyrin (ZnPPIX, Porphyrin Products, Logan, Utah) and biliverdin dihydrochloride (ICN Biomedicals Inc., OH) were dissolved in a small amount 0.2 M NaOH, subsequently adjusted to a pH of 7.4 with 1 M HCl, and diluted in 0.9% NaCl. The stock solutions (CoPPIX and ZnPPIX=1 mg/ml, biliverdin=10 mM) were aliquoted and kept at −70° C. until used. Light exposure was limited as much as possible. CoPPIX (5 mg/kg), ZnPPIX (20 mg/kg) and biliverdin (50 μmol/kg) were administered to the mice intraperitoneally (i.p.) 24 hours before induction of DSS-colitis and daily thereafter. Desferoxamine (DFO) was prepared in imidazole buffer (50 mM imidazole, 220 mM NaCl, pH 7.4). DFO was injected subcutaneously (s.c.) twice daily (125 mg/kg) or infused i.p. (130 mg/kg/day; pumping rate 0.5 μl/hour for 8 days) by miniosmotic Alzet™ pumps (Alza Corporation, Palo Alto, Calif.) (Postma et al., Exp. Parasitol. 89(3):323-30 1998). The pumps were installed i.p. 24 hours before induction of colitis. When animals were sacrificed at day 7 of DSS treatment, the pumps were removed and evaluated to determine if DFO application had taken place.
CO gas was administrated exogenously by putting animals in a CO exposure chamber (Otterbein et al., Nat. Med. 6(4):422-8, 2000). Briefly, CO at a concentration of 1% (10,000 parts per million (ppm)) in compressed air was mixed with balanced air (21% oxygen) in a stainless steel mixing cylinder before entering the exposure chamber. CO concentrations were controlled by varying the flow rates of CO in a mixing cylinder before delivery to the chamber. Because the flow rate is primarily determined by the O2 flow, only the CO flow was changed to deliver the final concentration to the exposure chamber. A CO analyzer (Interscan Corporation, Chatsworth, Calif.) was used to measure CO levels continuously in the chamber. Mice were placed in the chamber 24 hours before the induction of the colitis and were kept in the exposure chamber during the whole period of the experiment (total of 8 days). […] Animals were removed daily from the chamber to assess weight and stool.
Evaluation of Symptoms of Colitis. All animals were evaluated clinically on a daily basis. The evaluation of each animal included a measurement of weight, hemoccult positivity and examination of stool for the presence of gross blood and stool consistency. The disease activity index (DAI) was calculated by scoring percent weight loss, intestinal bleeding (no blood; occult blood=hemoccult+; gross blood) and stool consistency (normal stool=well-formed pellets; loose stool=pasty and semiformed stools; diarrhea=liquid stool that stuck to the anus) (Table 1).
The animals were sacrificed, and the whole colon from the colo-cecal junction to the anal verge was removed and gently cleaned of stool. […]

[1] = system: DBA/2 islets in diabetic B6AF1 recipients; experiment: Allogeneic islet transplantation, graft survival and tolerance test; type: in vivo, mice
Method: Animals. Male DBA/2, B6AF1 and DBA/1 mice 6-8 week of age (Jackson) are used in the experiments. Mice were kept for 2 weeks at 4 mice/cage and fed normal laboratory chow before using for the experiment.
Treatment protocol. Recipients were rendered diabetic using streptozotocin (STZ, 225 mg/kg). Five days after STZ administration, animals with two consecutive blood glucose levels exceeding 350 mg/dl are used as recipients. Islets (500) are transplanted under the kidney capsule of the recipients.
Reagents. Cobalt protoporphyrin (CoPPIX, Porphyrin Products, Logan, Utah), biliverdin dihydrochloride and bilirubin (ICN Biomedicals Inc., OH) were dissolved in a small amount of 0.2 M NaOH, subsequently adjusted to a pH of 7.4 with 1 M HCl, and diluted in 1×PBS. The stock solutions (CoPPIX=2 mg/ml, biliverdin=3.2 mg/ml, bilirubin=0.5 mg/ml) were aliquoted and kept at −70° C. until used. Light exposure was limited as much as possible.
Induction of HO-1/Administration of biliverdin/bilirubin. When given to the donor, CoPPIX (20 mg/kg) was given 24 hours before islet isolation to induce HO-1 expression. To verify HO-1 expression in different organs after CoPP treatment, tissue samples are collected 24 hours after treatment and snap frozen in liquid nitrogen. Immunohistological analysis of HO-1 expression is performed using an anti-HO-1 antibody. CoPPIX (20 mg/kg) was administrated to the recipient intraperitoneally (i.p.) on day-1, 1, 3, 5 and 7. Biliverdin (50 μmol/kg) or bilirubin (8.5 μmol/kg) was given intraperitoneally to the donor one hour before islet isolation. For the recipient, biliverdin (50 μmol/kg) or bilirubin ([…]) was administered intraperitoneally either daily or twice per day from day-1 until day 13. No further treatment was given afterwards.
Measurement of Glucose level. Glucose levels were tested twice weekly after transplantation. Glucose levels of <200 mg/dl were considered normoglycemic. Grafts were considered rejected when two consecutive glucose levels were >300 mg/dl.
Tolerance test. The first graft was removed from a number of animals that had islets surviving long-term (longer than 100 days) by doing a nephrectomy. Islets syngeneic with the original donor were transplanted under the contralateral kidney capsule without further treatment. If those second transplanted islets also survived longer than 100 days without further treatment, the recipients were considered tolerant.

recipient splenocytes = experiment: Mixed lymphocyte culture with splenocytes of treated cardiac allograft recipients; type: in vivo, mice; settings: harvested 5 days after cardiac transplantation, 72 hours culture with DBA/2 splenocytes; compared to controls
Method: Mixed lymphocyte culture (MLC). Irradiated (25Gy, ^137Cs) DBA/2 splenocytes (5×10^5/well) were co-cultured with responders (5×10^5/well) in a 96 well round bottom plates for 3 days at 37° C., 95% air with 5% CO2. When using cells from cardiac recipients as responders, the co-culture period was 3 days without any further in vitro treatment. ^3H-thymidine (1 μCi/well) was added 16 hours before termination of cell culture, and ^3H-thymidine incorporation was measured.
Induction of HO-1 expression or biliverdin administration suppresses the T cell mediated alloimmune response in vivo. […] Recipient splenocytes harvested 5 days after cardiac transplantation were used as responder cells in an in vitro culture with DBA/2 splenocytes as feeder cells. Proliferation was measured at 72 hours (FIG. 9).

[2] = system: DBA/2 cardiac allografts in B6AF1 recipients; experiment: Heterotopic cardiac allograft transplantation, graft survival; type: in vivo, mice
Method: Animals. Male DBA/2 (H-2^d), B6AF1 (H-2^k/d,b) and FVB (H-2^q) mice were purchased from Jackson Lab. Inc. (Bar Harbor, Me.). They were maintained in the institutional specific-pathogen free facility, which has an appropriate light cycle with free access to water and chow ad libitum, and used for experiments at age of 6-10 weeks.
Cardiac transplantation. DBA2/J and B6AF1 mice were used as donor and recipient, respectively. Heterotopic heart transplantation was carried out according to the procedure of Corry and Russell (Corry et al., Transplant Proc. 5(1):733-5, 1973). […] Secondary heart grafting into the neck was performed using a cuff technique as described previously (Matsuura et al., Transplantation 51(4):896-8, 1991). Briefly, the heart graft was harvested from either DBA2/J (donor strain) or FVB (third-party strain) mice. The right jugular vein and the right common carotid artery of recipient were dissected, and a cuff (polyethylene or polyimide) was connected to these vessels. The graft aorta and pulmonary artery were sleeved over the cuff on the recipient's common carotid artery and the jugular vein, respectively, and fixed with a ligature. After transplantation, beating of the graft was monitored by daily palpation, and scored +1 to +4 according to the strength of graft contractions. Graft rejection was defined as cessation of beating, and was confirmed by direct inspection followed by histological examination.
Donor and recipient mice were treated either with CoPPIX (5 mg/kg/day), ZnPPIX (5 mg/kg/day) or biliverdin (administered once, twice or three times per day at a dose of 50 μmol/kg/dose). All reagents were administered by intraperitoneal (i.p.) injection. Donor animals were treated for 2 days, starting from 2 days before graft harvest (day-2 and day-1). Treatment of recipient mice was initiated one day before transplantation, and continued until 13 days post-transplant (day-1 to day 13). For the experiments using donor splenocyte infusion (DSI) on day-7 (DSI (D-7)), treatments of recipient animals (either with CoPPIX or ZnPPIX) started from day-8 and were terminated on day 6. Recipients received no further treatment. Spleen cells (2×10^7) isolated from DBA/2J mice as described herein were used for DSI treatment. The cells were injected via the penile vein with 200 μl of 0.9% saline solution.
Statistics. Cardiac graft survival was plotted by the Kaplan-Meier method, and a log-rank test was applied to compare statistical significance. Expression levels of HO-1/α-actin protein are expressed as mean±standard deviation. Other data are expressed as mean±standard error of the mean (mean±SEM). Intergroup statistical analysis was performed by one-way ANOVA, and Fisher's PSLD was used for a post-hoc test. A comparison was considered statistically significant when the p-value was <0.05.

HO-1 = experiment: HO activity assay on spleen and heart of treated mice; type: in vivo, DBA/2J mice; settings: 5 mg/kg i.p., one day after treatment
Method: HO activity assay. DBA/2J mice were given either no treatment or CoPPIX or ZnPPIX at a dose of 5 mg/kg, i.p. (n=10 per group). One day after the treatment, the animals were sacrificed, the spleen and the heart were excised, and tissue samples were frozen at −80° C. Frozen tissue samples were homogenized in ice-cold sucrose and Tris-HCl buffer. The microsomal pellet was obtained after centrifugation and re-suspended in MgCl2-potassium phosphate buffer. Sample protein was then incubated with the reaction mixture containing rat liver cytosol, hemin, glucose-6-phosphate, glucose-6-phosphate dehydrogenase and NADPH (Sigma-Aldrich Corporation, St. Louis, Mo.) for 60 minutes at 37° C. The generated bilirubin was measured by reacting with diazotized surfanilic acid to yield azobilirubin using spectrophotometer.

CC(=O)N(O)CCCCCNC(=O)CCC(=O)N(O)CCCCCNC(=O)CCC(=O)N(O)CCCCCN [DFO, Desferoxamine]
protective effect on DSS-colitis (DSS-colitis; intraperitoneal osmotic pumps, 130 mg/kg/d): no protective effect was observed | protective effect on DSS-colitis (DSS-colitis; subcutaneous injections of 125 mg/kg twice daily): no protective effect

C=CC1=C(C)/C(=C/c2[nH]c(Cc3[nH]c(/C=C4\NC(=O)C(C)=C4C=C)c(C)c3CCC(=O)O)c(CCC(=O)O)c2C)NC1=O [bilirubin]
long-term survival of islets ([1]; 2 dose per day (every twelve hours)): 100% | long-term survival of islets ([1]; single dose per day to donor and recipient): 50%

C=CC1=C(C)c2cc3[n-]c(cc4nc(cc5[n-]c(cc1n2)c(C)c5C=C)C(C)=C4CCC(=O)O)c(CCC(=O)O)c3C.[Zn+2] [ZnPP, zinc protoporphyrin]
proliferation of recipient splenocytes (recipient splenocytes): did not | effect on natural course of DSS colitis (DSS-colitis; ZnPPIX 20 mg/kg i.p. daily, compared to untreated animals): no significant changes | graft prolongation effect ([2]; ZnPPIX plus DSI (D0), compared to control or DSI (D0) alone): no significant graft prolongation effect | allografts with long-term survival ([2]; ZnPPIX plus DSI (D-7)): 0/9 | graft MST ([2]; ZnPPIX plus DSI (D-7)): 13 days | graft median survival time (MST) ([2]; one dose per day i.p. (ZnPPIX 5 mg/kg; biliverdin 50 μmol/kg), untreated 11.5 days): 11 days | HO-1 enzymatic activity (HO-1): this was not the case
